Data as given in US7115740B2, “Pyrimido compounds having antiproliferative activity” (Hoffmann-la Roche Inc., priority 2003, dated 2006).

| SMILES | melting point |
| --- | --- |
| COc1ccc(N2Cc3cnc(Nc4ccc(F)cc4)nc3N([C@@H](C)CO)C2=O)c(F)c1 [Example 21b, (S)-(+)-3-(2-fluoro-4-methoxy-phenyl)-7-(4-fluoro-phenylamino)-1-(2-hydroxy-1-methyl-ethyl)-3,4-dihydro-1H-pyrimido[4,5-d]pyrimidin-2-one] | 173 to 177 °C |
| COc1ccc(N2Cc3cnc(Nc4ccccc4)nc3N([C@H](C)CO)C2=O)cc1 [Example 23d, (R)-(−)-1-(2-hydroxy-1-methyl-ethyl)-3-(4-methoxy-phenyl)-7-phenylamino-3,4-dihydro-1H-pyrimido[4,5-d]pyrimidin-2-one] | 156 to 163 °C |
| COc1ccc(N2Cc3cnc(Nc4ccccc4)nc3N([C@@H](C)CO)C2=O)cc1 [Example 15d, (S)-(+)-1-(2-hydroxy-1-methyl-ethyl)-3-(4-methoxy-phenyl)-7-phenylamino-3,4-dihydro-1H-pyrimido[4,5-d]pyrimidin-2-one] | 140 to 147 °C |

More lines, now with the values ahead:

| melting point | SMILES |
| --- | --- |
| 189 to 193 °C | COc1ccc(N2Cc3cnc(Nc4ccccc4)nc3N(C[C@@H](C)O)C2=O)cc1 [Example 28d, (R)-(−)-1-(2-hydroxy-propyl)-3-(4-methoxy-phenyl)-7-phenylamino-3,4-dihydro-1H-pyrimido[4,5-d]pyrimidin-2-one] |
| 188 to 193 °C | COc1ccc(N2Cc3cnc(Nc4ccccc4)nc3N(C[C@H](C)O)C2=O)cc1 [Example 31d, (S)-(+)-1-(2-hydroxy-propyl)-3-(4-methoxy-phenyl)-7-phenylamino-3,4-dihydro-1H-pyrimido[4,5-d]pyrimidin-2-one] |
